In US20160207906A1, “NOVEL 2,6-DIAMINOPYRIMIDINE DERIVATIVE” (CARNA BIOSCIENCES, INC., priority 2013, published 2016):
Entries after “also recorded” stand apart in the source; their conditions may differ.

How the values were obtained:
Dephosphorylated BTK = molecular target: T1, Dephosphorylated BTK (Homo sapiens, UniProt Q06187); experiment: BTK activity inhibition test (mobility shift assay, dephosphorylated BTK); assay type: biochemical; conditions: 200 μM ATP in substrate mixture, 1 hour at room temperature
T1 construct: purchased Carna Biosciences, Inc
Description: Dephosphorylated BTK was obtained by adding A protein phosphatase (manufactured by New England BioLabs Inc., Code No. P0753S) and MnCl2 at 10 U/μg and 2 mM, respectively to biotinylated BTK protein BTN-BTK (manufactured by Carna Biosciences, Inc.) enzyme solution, reacting the mixture at 4° C. overnight, and removing of A protein phosphatase by anti DYKDDDDK-tag antibody agarose gel chromatography, followed by buffer exchange using a 10DG Desalting Column.
The kinase activity was measured using QuickScout Screening Assist (trade mark) MSA (commercially available kit manufactured by Carna Biosciences, Inc.) by mobility shift assay (MSA) method. The substrate of the kinase reaction was an FITC-labeled SRCtide peptide included in the kit. An assay buffer [20 mM HEPES, 0.01% Triton X-100 (Trade mark), 2 mM dithiothreitol, pH7.5] was used and adjusted at 4 μM substrate, 20 mM MgCl2 and 200 μM ATP to obtain a substrate mixture solution. The enzyme solution was also prepared by diluting the dephosphorylated BTK to 0.6 nM using the assay buffer. The 10 mM solution of the test compound in DMSO was further diluted with DMSO to 10 levels of the concentration (0.00003 mM, 0.0001 mM, 0.0003 mM, 0.001 mM, 0.003 mM, 0.01 mM, 0.03 mM, 0.1 mM, 0.3 mM, 1 mM), each of which was subjected to a 25-fold dilution with the assay buffer to obtain the drug solutions (4% DMSO solutions), 5 μL of the drug solution or a control solution (4% DMSO-assay buffer), 5 μL of the substrate mixture solution, and 10 μL of the enzyme solution were mixed in the wells of a polypropylene 384-well plate and allowed to react at room temperature for 1 hour, and then quenched by adding 60 μL of the termination buffer included in the kit. Subsequently, the quantities of the substrates (S) and the phosphorylated substrate (P) in the reaction solution were measured using LabChip EZ Reader II system (manufactured by Caliper Life Sciences) according to the protocol of the assay kit.
The heights of the peaks of the isolated substrate and the phosphorylated substrate were represented as S and P, respectively, and a blank which contained the assay buffer instead of the enzyme solution was also measured.
The inhibition rate (%) of the test compound was calculated according to the following equation.
Inhibition rate (%)=(1−(C−A)/(B−A))×100
wherein, A, B and C represent P/(P+S) of the blank well, P/(P+S) of the control well and P/(P+S) of the compound-containing well, respectively.
The IC50 value was calculated via a regression analysis of the inhibition rate (%) and the test compound concentration (logarithmic value).

[1] = test system: anti-IgM antibody BCR stimulation-induced intracellular calcium influx in Ramos cells; experiment: Inhibition test on the change of Ramos intracellular calcium ion; assay type: cell-based; conditions: Fluo-8NW, anti-IgM antibody 2.0 μg/mL
Description: The intracellular BTK inhibition by the compounds of the present invention was verified by measuring the effects of the compounds of the present invention on “anti-IgM antibody BCR stimulation-induced intracellular calcium influx”.
One day before measurement, the Ramos cells were cultured as being suspended again at a cell density of 1.0×10^6 cells/mL in a fresh growth medium (growth medium as used in Test Example 2), and the cells were recovered next day by centrifugation and washed with RPMI-1640 medium supplemented with 5% penicillin-streptomycin (Nacalai Tesque, Inc.) (Medium 1). These cells were suspended again at a cell density of 2.0×10^6 cells/mL in RPMI-1640 medium supplemented with 1% Ultra Low IgG FBS (GIBCO, #16250) and 5% penicillin-streptomycin (Nacalai Tesque, Inc.) (Medium 2), and thereafter each 100 μL of the cell suspension was added to each well of a Poly Lysine-coated microplate (BD BioCoat™, #356692), centrifuged (700 rpm, 3 minutes) and then incubated for 1 hour in a 5% CO2 incubator at 37° C. […]
The Ramos intracellular calcium ion concentration was measured as a fluorescent intensity of the calcium indicator Fluo-8NW using a microplate reader (SynergyH1) (Ex/Em=490/525 nm). […]

T1 sequence (Q06187 whole entry): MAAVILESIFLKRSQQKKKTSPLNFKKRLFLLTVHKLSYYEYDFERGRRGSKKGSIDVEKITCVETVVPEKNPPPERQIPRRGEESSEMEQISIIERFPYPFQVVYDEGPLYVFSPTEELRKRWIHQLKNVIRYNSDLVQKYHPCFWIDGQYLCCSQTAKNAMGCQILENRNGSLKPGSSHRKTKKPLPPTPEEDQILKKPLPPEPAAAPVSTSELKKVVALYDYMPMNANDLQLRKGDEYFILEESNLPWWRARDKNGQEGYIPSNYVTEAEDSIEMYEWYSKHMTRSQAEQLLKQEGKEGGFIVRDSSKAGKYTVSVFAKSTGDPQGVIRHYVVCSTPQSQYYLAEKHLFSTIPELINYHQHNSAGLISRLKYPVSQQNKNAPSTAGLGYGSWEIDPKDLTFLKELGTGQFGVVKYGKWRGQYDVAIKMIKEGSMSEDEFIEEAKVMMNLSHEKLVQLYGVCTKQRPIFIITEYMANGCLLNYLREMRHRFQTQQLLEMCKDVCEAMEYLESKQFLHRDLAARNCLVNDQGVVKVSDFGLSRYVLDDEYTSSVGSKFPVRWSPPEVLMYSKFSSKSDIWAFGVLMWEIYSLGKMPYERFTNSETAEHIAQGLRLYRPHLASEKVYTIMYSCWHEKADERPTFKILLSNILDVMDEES

IC50 (Dephosphorylated BTK) [nM] | Structure (SMILES) | inhibition of anti-IgM antibody BCR stimulation-induced intracellular calcium ion variation (FIG. 1) [1]
1.7 | Cn1cc(Nc2nc(N)cc(-c3cccc(-n4ccc5cc(C6CC6)cc(F)c5c4=O)c3CO)n2)cc1C#N [Example 5, 4-({4-Amino-6-[3-(6-cyclo-propyl-8-fluoro-1-oxoiso-quinolin-2(1H)-yl)-2-(hydroxymethyl)phenyl]pyrimidin-2-yl}amino)-1-methyl-1H-pyrrole-2-carbonitrile] | –
0.4 | CN1CCN(c2ccc(Nc3nc(N)cc(-c4cccc(-n5ccc6cc(C7CC7)cc(F)c6c5=O)c4CO)n3)cc2)CC1 [Example 15, 2-[3-(6-Amino-2-{[4-(4-methylpiperazin-1-yl)phenyl]amino}pyrimidin-4-yl)-2-(hydroxymethyl)phenyl]-6-cyclopropyl-8-fluoroisoquinolin-1(2H)-one] | –
0.3 | Cn1cc(Nc2nc(N)cc(-c3cccc(-n4ccc5cc(C(C)(C)C)cc(F)c5c4=O)c3CO)n2)cn1 [Example 7, 2-(3-{6-Amino-2-[(1-methyl-1H-pyrazol-4-yl)amino]pyrimidin-4-yl}-2-(hydroxymethyl)phenyl)-6-(tert-butyl)-8-fluoro-isoquinolin-1(2H)-one] | –
0.4 | Nc1cc(-c2cccc(-n3ncc4cc(C5CC5)cc(F)c4c3=O)c2CO)nc(Nc2cnn(C3CC3)c2)n1 [Example 21, 2-(3-{6-Amino-2-[(1-cyclo-propyl-1H-pyrazol-4-yl)amino]pyrimidin-4-yl}-2-(hydroxymethyl)phenyl)-6-cyclopropyl-8-fluoro-phthalazin-1(2H)-one] | –
2.1 | N#Cc1cc(Nc2nc(N)cc(-c3cccc(-n4ccc5cc(C6CC6)cc(F)c5c4=O)c3CO)n2)cn1C1CC1 [Example 10, 4-({4-Amino-6-[3-(6-cyclo-propyl-8-fluoro-1-oxoiso-quinolin-2(1H)-yl)-2-(hydroxymethyl)phenyl]pyrimidin-2-yl}amino)-1-cyclopropyl-1H-pyrrole-2-carbonitrile] | –
0.2 | Cn1cc(Nc2nc(N)cc(-c3cccc(-n4ccc5cc(C6(C)CC6)cc(F)c5c4=O)c3CO)n2)cn1 [Example 25, 2-(3-{6-Amino-2-[(1-methyl-1H-pyrazol-4-yl)amino]pyrimidin-4-yl}-2-(hydroxy-methyl)phenyl)-8-fluoro-6-(1-methylcyclopropyl) isoquinolin-1(2H)-one] | –

More lines, now with the values behind:

Structure (SMILES) | IC50 (Dephosphorylated BTK) [nM] | inhibition of anti-IgM antibody BCR stimulation-induced intracellular calcium ion variation (FIG. 1) [1]
CC(=O)c1cc(Nc2nc(N)cc(-c3cccc(-n4ccc5cc(C6CC6)cc(F)c5c4=O)c3CO)n2)cn1C [Example 17, 2-(3-{2-[(5-Acetyl-1-methyl-1H-pyrrol-3-yl)amino]-6-aminopyrimidin-4-yl}-2-(hydroxymethyl)phenyl)-6-cyclopropyl-8-fluoroiso-quinolin-1(2H)-one] | 0.8 | –
Nc1cc(-c2cccc(-n3ccc4cc(C5CC5)cc(F)c4c3=O)c2CO)nc(Nc2cnn(CC3CC3)c2)n1 [Example 8, 2-[3-(6-Amino-2-{[1-(cyclopropylmethyl)-1H-pyrazol-4-yl]amino}pyrimidin-4-yl)-2-(hydroxymethyl)phenyl]-6-cyclopropyl-8-fluoroisoquinolin-1(2H)-one] | 0.3 | –
Nc1cc(-c2cccc(-n3ccc4cc(C5CC5)cc(F)c4c3=O)c2CO)nc(Nc2cnn(C3CC3)c2)n1 [Example 9, 2-(3-{6-Amino-2-[(1-cyclopropyl-1H-pyrazol-4-yl)amino]pyrimidin-4-yl}-2-(hydroxymethyl)phenyl)-6-cyclopropyl-8-fluoroisoquinolin-1(2H)-one] | 0.3 | –
Cn1cc(Nc2nc(N)cc(-c3ccnc(-n4ccc5cc(C6CC6)cc(F)c5c4=O)c3CO)n2)cn1 [Example 22, 2-(4-{6-Amino-2-[(1-methyl-1H-pyrazol-4-yl)amino]pyrimidin-4-yl}-3-(hydroxy-methyl)pyridin-2-yl)-6-cyclo-propyl-8-fluoroisoquinolin-1(2H)-one] | 0.8 | –
Cn1cc(Nc2nc(N)cc(-c3cccc(-n4ncc5cc(C6CC6)cc(F)c5c4=O)c3CO)n2)cn1 [Example 20, 2-(3-{6-Amino-2-[(1-methyl-1H-pyrazol-4-yl)amino]pyrimidin-4-yl}-2-(hydroxy-methyl)phenyl)-6-cyclopropyl-8-fluorophthalazin-1(2H)-one] | 0.6 | –
Cn1cc(Nc2nc(N)cc(-c3cccc(-n4ncc5cc(C6CC6)cc(F)c5c4=O)c3CO)n2)cc1C#N [Example 24, 4-({4-Amino-6-[3-(6-cyclo-propyl-8-fluoro-1-oxo-phthalazin-2(1H)-yl)-2-(hydroxymethyl)phenyl]pyrimidin-2-yl}amino)-1-methyl-1H-pyrrole-2-carbonitrile] | 0.4 | –
Nc1cc(-c2cccc(-n3ccc4cc(C5CC5)cc(F)c4c3=O)c2CO)nc(Nc2ccc(N3CCOCC3)cc2)n1 [Example 1, 2-(3-{6-Amino-2-[(4-morpholinophenyl)amino]pyrimidin-4-yl}-2-(hydroxymethyl)phenyl)-6-cyclopropyl-8-fluoroisoquinolin-1 (2H)-one] | 2.1 | in a concentration-dependent manner from a low concentration; also recorded: inhibit the flux of calcium into the cells
Nc1cc(-c2cccc(-n3ccc4cc(C5CC5)cc(F)c4c3=O)c2CO)nc(Nc2cn[nH]c2)n1 [Example 18, 2-(3-{2-[(1H-Pyrazol-4-yl)amino]-6-aminopyrimidin-4-yl}-2-(hydroxymethyl)phenyl)-6-cyclopropyl-8-fluoroiso-quinolin-1(2H)-one] | 0.6 | –
Cn1cc(Nc2nc(N)cc(-c3cccc(-n4ccc5cc(C6CC6)cc(F)c5c4=O)c3CO)n2)cn1 [Example 2, 2-(3-{6-Amino-2-[ (1-methyl-1H-pyrazol-4-yl)amino]pyrimidin-4-yl}-2-(hydroxymethyl)phenyl)-6-cyclopropyl-8-fluoroisoquinolin-1 (2H)-one] | 6.4 | in a concentration-dependent manner from a low concentration; also recorded: inhibit the flux of calcium into the cells
